Laboratory results: PubChem BioAssay AID2060621 (Molecular Pharmacology Branch, DTP, NCI, 2025)

Test system: 324938-238-R-J1-PDC complex spheroids viability
Assay: Anticancer human tumor 324938-238-R-J1-PDC patient-derived bladder carcinoma cell line growth inhibition [CLK]
Conditions: for IC50: curve of first compound; for viability, T/C: stronger effect = lower value; active = viability on the fitted dose curve at most 10% of control; inactive = the rest
Method in brief: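 Patient-derived tumor cells grown as complex spheroids with HUVEC endothelial cells and mesenchymal stem cells, treated with drug combinations. Concentrations descend in half-log steps from near clinical Cmax, or from 10 microM if Cmax unknown.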

[1] = second compound 0.0316 µM, first compound 0.0316 µM
[2] = second compound 0.0316 µM, first compound 0.1 µM
[3] = second compound 0.0316 µM, first compound 0.316 µM
[4] = second compound 0.0316 µM, first compound 1 µM
[5] = second compound 0.0316 µM, first compound 3.16 µM
[6] = second compound 0.0316 µM, first compound 10 µM
[7] = second compound 0.1 µM, first compound 0.0316 µM
[8] = second compound 0.1 µM, first compound 0.1 µM
[9] = second compound 0.1 µM, first compound 0.316 µM
[10] = second compound 0.1 µM, first compound 1 µM
[11] = second compound 0.1 µM, first compound 3.16 µM
[12] = second compound 0.1 µM, first compound 10 µM
[13] = second compound 0.316 µM, first compound 0.0316 µM
[14] = second compound 0.316 µM, first compound 0.1 µM
[15] = second compound 0.316 µM, first compound 0.316 µM
[16] = second compound 0.316 µM, first compound 1 µM
[17] = second compound 0.316 µM, first compound 3.16 µM
[18] = second compound 0.316 µM, first compound 10 µM
[19] = second compound 1 µM, first compound 0.0316 µM
[20] = second compound 1 µM, first compound 0.1 µM
[21] = second compound 1 µM, first compound 0.316 µM
[22] = second compound 1 µM, first compound 1 µM
[23] = second compound 1 µM, first compound 3.16 µM
[24] = second compound 1 µM, first compound 10 µM
[25] = second compound 3.16 µM, first compound 0.0316 µM
[26] = second compound 3.16 µM, first compound 0.1 µM
[27] = second compound 3.16 µM, first compound 0.316 µM
[28] = second compound 3.16 µM, first compound 1 µM
[29] = second compound 3.16 µM, first compound 3.16 µM
[30] = second compound 3.16 µM, first compound 10 µM
[31] = second compound 10 µM, first compound 0.0316 µM
[32] = second compound 10 µM, first compound 0.1 µM
[33] = second compound 10 µM, first compound 0.316 µM
[34] = second compound 10 µM, first compound 1 µM
[35] = second compound 10 µM, first compound 3.16 µM
[36] = second compound 10 µM, first compound 10 µM
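Note: viability read after seven days of drug exposure.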
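Throughout, for viability, T/C: 100% = DMSO vehicle control wells.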

C=CC(=O)Nc1cc(Nc2nccc(-c3cn(C)c4ccccc34)n2)c(OC)cc1N(C)CCN(C)C + CNC(=O)c1ccc(Nc2nc(OC3CCCC3)c3c(-c4ccc5nc(C)oc5c4)c[nH]c3n2)c(OC)c1
inactive: viability, T/C (second compound 0.0316 µM, first compound 0.000949 µM) 92.5% | viability, T/C (second compound 0.0316 µM, first compound 0.003 µM) 87.2% | viability, T/C (second compound 0.0316 µM, first compound 0.00949 µM) 74.5% | viability, T/C (second compound 0.0316 µM, first compound 0.03 µM) 52.8% | viability, T/C (second compound 0.0316 µM, first compound 0.0949 µM) 38.6% | viability, T/C (second compound 0.0316 µM, first compound 0.3 µM) 27.7% | viability, T/C (second compound 0.1 µM, first compound 0.000949 µM) 30.5% | viability, T/C (second compound 0.1 µM, first compound 0.003 µM) 24.8% | viability, T/C (second compound 0.1 µM, first compound 0.00949 µM) 21.4% | viability, T/C (second compound 0.1 µM, first compound 0.03 µM) 20.3% | viability, T/C (second compound 0.1 µM, first compound 0.0949 µM) 15.6% | viability, T/C (second compound 0.1 µM, first compound 0.3 µM) 14.1% | viability, T/C (second compound 0.316 µM, first compound 0.000949 µM) 19% | viability, T/C (second compound 0.316 µM, first compound 0.003 µM) 16.8% | viability, T/C (second compound 0.316 µM, first compound 0.00949 µM) 19.2% | viability, T/C (second compound 0.316 µM, first compound 0.03 µM) 16.2% | viability, T/C (second compound 0.316 µM, first compound 0.0949 µM) 13.4% | viability, T/C (second compound 0.316 µM, first compound 0.3 µM) 12.9% | viability, T/C (second compound 1 µM, first compound 0.000949 µM) 16.8% | viability, T/C (second compound 1 µM, first compound 0.003 µM) 15.5% | viability, T/C (second compound 1 µM, first compound 0.00949 µM) 16.8% | viability, T/C (second compound 1 µM, first compound 0.03 µM) 11.8% | viability, T/C (second compound 1 µM, first compound 0.0949 µM) 11.1% | viability, T/C (second compound 1 µM, first compound 0.3 µM) 11.5% | viability, T/C (second compound 3.16 µM, first compound 0.000949 µM) 16.8% | viability, T/C (second compound 3.16 µM, first compound 0.003 µM) 17.6% | viability, T/C (second compound 3.16 µM, first compound 0.00949 µM) 13.1% | viability, T/C (second compound 3.16 µM, first compound 0.03 µM) 14.3% | viability, T/C (second compound 3.16 µM, first compound 0.0949 µM) 11.9% | viability, T/C (second compound 3.16 µM, first compound 0.3 µM) 11.8% | viability, T/C (second compound 10 µM, first compound 0.000949 µM) 18.1% | viability, T/C (second compound 10 µM, first compound 0.003 µM) 17.9% | viability, T/C (second compound 10 µM, first compound 0.00949 µM) 14.8% | viability, T/C (second compound 10 µM, first compound 0.03 µM) 13.2% | viability, T/C (second compound 10 µM, first compound 0.0949 µM) 12.4% | viability, T/C (second compound 10 µM, first compound 0.3 µM) 11.5%
39.6 nM: IC50 (second compound 0.0316 µM)
< 0.949 nM: IC50 (second compound 0.1 µM) | IC50 (second compound 0.316 µM) | IC50 (second compound 1 µM) | IC50 (second compound 3.16 µM) | IC50 (second compound 10 µM)

CC(Nc1ccc2c(c1)OCCn1cc(N3C(=O)OCC3C(F)F)nc1-2)C(N)=O (stereo not drawn) + CNC(=O)c1ccc(Nc2nc(OC3CCCC3)c3c(-c4ccc5nc(C)oc5c4)c[nH]c3n2)c(OC)c1
inactive: viability, T/C [1] 78.8% | viability, T/C [2] 52.5% | viability, T/C [3] 42.1% | viability, T/C [4] 35.5% | viability, T/C [5] 22.2% | viability, T/C [6] 15.3% | viability, T/C [7] 32.2% | viability, T/C [8] 28.1% | viability, T/C [9] 25% | viability, T/C [10] 21.1% | viability, T/C [11] 20.2% | viability, T/C [12] 13.6% | viability, T/C [13] 14% | viability, T/C [14] 10.9% | viability, T/C [19] 13.4% | viability, T/C [20] 12.3% | viability, T/C [25] 13.1% | viability, T/C [26] 9.57% | viability, T/C [31] 14.4% | viability, T/C [32] 9.66%
active: viability, T/C [15] 9.84% | viability, T/C [16] 9.27% | viability, T/C [17] 6.34% | viability, T/C [18] 5.89% | viability, T/C [21] 8.46% | viability, T/C [22] 6.86% | viability, T/C [23] 5.9% | viability, T/C [24] 4.88% | viability, T/C [27] 9.31% | viability, T/C [28] 7.44% | viability, T/C [29] 7.17% | viability, T/C [30] 4.87% | viability, T/C [33] 9.38% | viability, T/C [34] 7.73% | viability, T/C [35] 7.48% | viability, T/C [36] 4.64%
169 nM: IC50 (second compound 0.0316 µM)
< 31.6 nM: IC50 (second compound 0.1 µM) | IC50 (second compound 0.316 µM) | IC50 (second compound 1 µM) | IC50 (second compound 3.16 µM) | IC50 (second compound 10 µM)

CCN1CCN(Cc2ccc(Nc3ncc(F)c(-c4cc(F)c5nc(C)n(C(C)C)c5c4)n3)nc2)CC1 + CNC(=O)c1ccc(Nc2nc(OC3CCCC3)c3c(-c4ccc5nc(C)oc5c4)c[nH]c3n2)c(OC)c1
inactive: viability, T/C (second compound 0.0316 µM, first compound 0.00316 µM) 75.9% | viability, T/C (second compound 0.0316 µM, first compound 0.01 µM) 77.3% | viability, T/C [1] 57.8% | viability, T/C [2] 49.9% | viability, T/C [3] 42.8% | viability, T/C [4] 36.6% | viability, T/C (second compound 0.1 µM, first compound 0.00316 µM) 32.2% | viability, T/C (second compound 0.1 µM, first compound 0.01 µM) 31.5% | viability, T/C [7] 29.7% | viability, T/C [8] 30.7% | viability, T/C [9] 33.5% | viability, T/C [10] 38.7% | viability, T/C (second compound 0.316 µM, first compound 0.00316 µM) 19.7% | viability, T/C (second compound 0.316 µM, first compound 0.01 µM) 17% | viability, T/C [13] 19% | viability, T/C [14] 22.7% | viability, T/C [15] 30.5% | viability, T/C [16] 33.3% | viability, T/C (second compound 1 µM, first compound 0.00316 µM) 18.5% | viability, T/C (second compound 1 µM, first compound 0.01 µM) 17.9% | viability, T/C [19] 16.8% | viability, T/C [20] 21.5% | viability, T/C [21] 22.6% | viability, T/C [22] 31.9% | viability, T/C (second compound 3.16 µM, first compound 0.00316 µM) 19% | viability, T/C (second compound 3.16 µM, first compound 0.01 µM) 18% | viability, T/C [25] 16.1% | viability, T/C [26] 20.6% | viability, T/C [27] 29.9% | viability, T/C [28] 30.5% | viability, T/C (second compound 10 µM, first compound 0.00316 µM) 16.4% | viability, T/C (second compound 10 µM, first compound 0.01 µM) 15.9% | viability, T/C [31] 21.2% | viability, T/C [32] 18.4% | viability, T/C [33] 23% | viability, T/C [34] 32.5%
87.6 nM: IC50 (second compound 0.0316 µM)
< 3.16 nM: IC50 (second compound 0.1 µM) | IC50 (second compound 0.316 µM) | IC50 (second compound 1 µM) | IC50 (second compound 3.16 µM) | IC50 (second compound 10 µM)

Nc1ccccc1NC(=O)c1ccc(CNC(=O)OCc2cccnc2)cc1 + CNC(=O)c1ccc(Nc2nc(OC3CCCC3)c3c(-c4ccc5nc(C)oc5c4)c[nH]c3n2)c(OC)c1
1470 nM: IC50 (second compound 0.0316 µM)
inactive: viability, T/C [1] 78.2% | viability, T/C [2] 91.8% | viability, T/C [3] 69% | viability, T/C [4] 57.2% | viability, T/C [5] 35% | viability, T/C [7] 31.1% | viability, T/C [8] 32.7% | viability, T/C [9] 30.4% | viability, T/C [10] 34% | viability, T/C [11] 32.6% | viability, T/C [12] 4.92% | viability, T/C [13] 15.1% | viability, T/C [14] 17% | viability, T/C [15] 15.8% | viability, T/C [16] 23.2% | viability, T/C [17] 26.1% | viability, T/C [18] 3.89% | viability, T/C [19] 14.2% | viability, T/C [20] 14.6% | viability, T/C [21] 16.7% | viability, T/C [22] 23.7% | viability, T/C [23] 26.2% | viability, T/C [24] 2.44% | viability, T/C [25] 13% | viability, T/C [26] 15.2% | viability, T/C [27] 18.6% | viability, T/C [28] 18.9% | viability, T/C [29] 26.2% | viability, T/C [30] 2.46% | viability, T/C [31] 15.2% | viability, T/C [32] 17.1% | viability, T/C [33] 19% | viability, T/C [34] 20.7% | viability, T/C [35] 25.8% | viability, T/C [36] 2.14%
< 31.6 nM: IC50 (second compound 0.1 µM) | IC50 (second compound 0.316 µM) | IC50 (second compound 1 µM) | IC50 (second compound 3.16 µM) | IC50 (second compound 10 µM)
active: viability, T/C [6] 5.41%
